Laboratory results published in US9029410B2, “Pharmaceutical compositions for the treatment of movement disorders” (Sarah Herzog Memorial Hospital Ezrath Nashim Association, priority 2003, dated 2015).
Where two headings read alike, the source gives them in different places.

Experiments:
[1] = system: inpatients with treatment-resistant schizophrenia; conditions: glycine 0.8 g/kg/day; 2 patients; ceased following discontinuation
Excerpt: Three of the 14 patients who completed the study were women and 11 were men. Their mean age was 46.5 years (SD=9.6), the mean duration of their illness was 25.8 years (SD=11.0) and the mean duration of their current hospitalization was 3.0 years (SD=3.7).

[2] = system: inpatients with treatment-resistant schizophrenia
Excerpt: The study was approved by the appropriate institutional review boards. Seventeen stable inpatients meeting DSM-IV criteria for schizophrenia and free of other axis I diagnoses or significant medical illness were enrolled in the study. Diagnosis was established on the basis of semistructured psychiatric interviews, review of all available medical records, and confirmation by two board-certified psychiatrists. […] Medication doses remained fixed throughout the study.
After complete description of the study, written informed consent was obtained from all participating patients. The double-blind, placebo-controlled, crossover study consisted of two random-order 6-week treatment arms (glycine 0.8 g/kg/day, or placebo), separated by a 2-week adjuvant treatment washout. Patients were assessed biweekly with the Positive and Negative Syndrome Scale (PANSS), Brief Psychiatric Rating Scale (BPRS), Simpson-Angus Rating Scale (SAS), and Abnormal Involuntary Movement Scale (AIMS) performed by one trained research psychiatrist, as previously described (3). CBC and SMA-20 measures were assessed biweekly throughout the study. Trough glycine and serine serum levels were assessed at baseline and at the end of the two treatment phases. Data were analyzed by repeated measures ANOVA with within group factor of study phase (glycine/placebo) and time within study phase (pre/post), and between group factor of treatment order.

[3] = system: haloperidol-treated Sprague-Dewley rats
Experimental: In this model, animals are treated chronically with antipsychotics and their vacuous chewing motions are assessed by observation.
Sprague-Dewley rats (Harlan Laboratories, Jerusalem, Israel) weighing 150 to 170 g. were used. The rats were housed in polycarbonate cages (4 in each cage), maintained under a 12 hour-12 hour dark-light (04.00-16.00 hours) cycle, and were allowed water ad libitum. In order to limit neuroleptic-induced weight gain, the food was restricted to 15 g. pellets per animal per day, as used by Andreassen et al (1996). Rats were weighed biweekly throughout the study. Room temperature was maintained at 22±2° C. All procedures were conducted in accordance with local and international laws for the care and use of laboratory animals.
For two weeks prior to the first drug injection, animals were handled daily and habituated to the animal colony and the procedures related to drug administration and video recording situation. Subsequently (week 0), rats underwent a behavior video recording session following which they were randomized to a haloperidol treatment and a control group. The rats in the treatment group received an intramuscular injection in the thigh muscles with haloperidol decanoate (Pericate, Unipharm Ltd., Tel Aviv, Israel), 100 mg/ml in sesame oil, at a dose of 0.35 mg/kg. The control rats were similarly injected with an equal volume of phosphate buffered saline (PBS). Twenty-three G hypodermic needles were used for all injections. […]
Rats underwent a video recorded behavior assessment session 30-150 minutes following the injection. Two weeks after the test day (i.e., post-test day), the video recorded behavior assessment session was repeated in order to investigate longer-term effects of the experimental treatments. […]
A trained observer, unaware of the treatment received by the rats, scored the behavior while watching the videotapes. […] The statistical significance of interaction of the between group factor and the repeated measures factor is determined in the [sequence] software package using the Rao R statistic and the F distribution. […]

[4] = system: schizophrenia patients; conditions: prior study, Heresco-Levy et al., 1999, Table 3, cited from earlier work
[5] = system: schizophrenia patients; conditions: prior study, Heresco-Levy et al., 1999, Table 3, cited from earlier work; remark: listed apart in the source
[6] = glycine 0.8 g/kg/day vs placebo, 6 weeks
[7] = glycine 0.8 g/kg/day, week 6, mean, n=14
[8] = glycine phase, baseline, mean, n=14
[9] = mean (sd), reduction over 6 weeks of glycine 0.8 g/kg/day
[10] = mean (sd), reduction over 6 weeks of glycine 0.8 g/kg/day, listed as glycine

With `NCC(=O)O` [Glycine, glycine] the “Adverse effect leading to withdrawal during glycine administration” value [1] was “mild upper gastrointestinal tract discomfort”, the “AIMS score decrease during glycine treatment” value ([2]; 6 weeks glycine, vs 0.3 point increase during placebo, p<0.02) was 1.0 point and the “SAS score decrease during glycine treatment” value ([2]; 6 weeks glycine, vs 0.5 point increase during placebo, p<0.05) was 1.3 points. For the same compound, the “AIMS, Effect size (d)” value [2, 6] was 0.6, the “BPRS Total, Effect size (d)” value [2, 6] was 1.6 and the “PANSS Cognitive Symptoms, Effect size (d)” value [2, 6] was 0.9. The “PANSS Depression, Effect size (d)” value [2, 6] was 0.7, the “PANSS Excitement, Effect size (d)” value [2, 6] was 0.6 and the “PANSS Negative Symptoms, Effect size (d)” value [2, 6] was 2.1. For the same compound, the “PANSS Positive Symptoms, Effect size (d)” value [2, 6] was 0.7, the “SAS, Effect size (d)” value [2, 6] was 0.6 and the “AIMS, Score at Week 6” value [2, 7] was 2.6. The “BPRS Total, Score at Week 6” value [2, 7] was 36.6, the “PANSS Cognitive Symptoms, Score at Week 6” value [2, 7] was 17.9 and the “PANSS Depression, Score at Week 6” value [2, 7] was 13.4. The “PANSS Excitement, Score at Week 6” value [2, 7] was 12.0, the “PANSS Negative Symptoms, Score at Week 6” value [2, 7] was 20.4 and the “PANSS Positive Symptoms, Score at Week 6” value [2, 7] was 14.0. The “SAS, Score at Week 6” value [2, 7] was 4.0, the “PANSS Negative Symptoms, Score at Baseline” value ([2]; glycine phase, baseline, mean, 14 inpatients on olanzapine or risperidone) was 24.6 and the “AIMS, Score at Baseline” value [2, 8] was 3.6. For the same compound, the “BPRS Total, Score at Baseline” value [2, 8] was 42.6, the “PANSS Cognitive Symptoms, Score at Baseline” value [2, 8] was 19.1 and the “PANSS Depression, Score at Baseline” value [2, 8] was 14.4. For the same compound, the “PANSS Excitement, Score at Baseline” value [2, 8] was 13.2, the “PANSS Positive Symptoms, Score at Baseline” value [2, 8] was 15.4 and the “SAS, Score at Baseline” value [2, 8] was 5.3. The “AIMS, % Change during glycine” value [2, 9] was 32.2 (30.4) %, the “BPRS Total, % Change during glycine” value [2, 9] was 13.7 (7.5) % and the “PANSS Cognitive Symptoms, % Change during glycine” value [2, 9] was 9.2 (6.8) %. The “PANSS Depression, % Change during glycine” value [2, 9] was 7.4 (17.1) %, the “PANSS Excitement, % Change during glycine” value [2, 9] was 10.6 (20.9) % and the “PANSS Negative Symptoms, % Change during glycine” value [2, 9] was 23.3 (8.4) %. For the same compound, the “PANSS Positive Symptoms, % Change during glycine” value [2, 9] was 11.4 (11.7) %, the “SAS, % Change during glycine” value [2, 9] was 17.9 (40.1) % and the “AIMS, % Change during glycine” value [2, 10] was 32.2%. The “SAS, % Change during glycine” value [2, 10] was 18%, the “Number of VCM at baseline vs post-test day” value ([3]; 2 weeks after acute glycine 1.6 g/kg, p<0.07, VCM returned to pre-treatment levels) was “did not differ significantly” and the “VCM frequency, glycine vs placebo group at test day” value ([3]; glycine 1.6 g/kg intraperitoneal, acute, p<0.01) was “significantly lower VCM frequency”. For the same compound, the “Reduction in the number of VCM episodes” value ([3]; glycine 1.6 g/kg intraperitoneal, test day vs baseline, 30-150 minutes after injection, p<0.001) was 82%, the “SAS score before glycine treatment” value [4] was 1.3 points and the “SAS score after glycine treatment” value ([4]; not significant vs placebo) was 0.6 points. For the same compound, the “AIMS score before glycine treatment” value [5] was 1.9 and the “AIMS score after glycine treatment” value ([5]; not significant vs placebo) was 1.4.
